The text below walks through data of patent US10787447B2, “Pharmaceutical compounds” (Heptares Therapeutics Limited, priority 2018, dated 2020).

As a reminder, the EC50 is the concentration that produces a half-maximal response. A high value points to weaker potency. Broadly, the Emax is the maximal effect, on the per cent scale that the assay sets.

Assay type in all cases: cell-based
For assay [1], the target named is T1, human muscarinic M1 receptor (Homo sapiens, UniProt P11229).
T1 sequence (P11229 1-460): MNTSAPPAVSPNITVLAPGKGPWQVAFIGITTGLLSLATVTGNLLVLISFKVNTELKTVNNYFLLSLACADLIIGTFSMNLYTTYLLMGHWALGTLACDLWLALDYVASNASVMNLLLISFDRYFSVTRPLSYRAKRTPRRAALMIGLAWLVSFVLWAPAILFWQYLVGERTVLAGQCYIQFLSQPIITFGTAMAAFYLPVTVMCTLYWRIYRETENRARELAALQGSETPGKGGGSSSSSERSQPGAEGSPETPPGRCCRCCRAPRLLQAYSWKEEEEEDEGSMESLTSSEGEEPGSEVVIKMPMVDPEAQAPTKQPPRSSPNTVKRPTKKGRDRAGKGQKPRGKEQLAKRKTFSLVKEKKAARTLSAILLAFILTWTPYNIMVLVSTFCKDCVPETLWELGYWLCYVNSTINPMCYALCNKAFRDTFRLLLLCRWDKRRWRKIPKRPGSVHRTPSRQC
As to the kind of experiment: Alphascreen Surefire phospho-ERK1/2 functional assay, M1. As to conditions: for % Emax cf. ACh, M1: CHO cells stably expressing human M1; for EC50: pEC50 M1, CHO cells stably expressing human M1, phospho-ERK1/2. Summed up:
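Stably transfected CHO cells, serum-starved overnight, then exposed to agonist for 5 min at 37 °C. Cells lysed and phospho-ERK1/2 measured by AlphaScreen SureFire.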
(Alpha assays give light when donor and acceptor beads are brought close together.)

Assay [2] has as its target T2, human muscarinic M2 receptor (Homo sapiens, UniProt P08172).
T2 sequence (P08172 1-466): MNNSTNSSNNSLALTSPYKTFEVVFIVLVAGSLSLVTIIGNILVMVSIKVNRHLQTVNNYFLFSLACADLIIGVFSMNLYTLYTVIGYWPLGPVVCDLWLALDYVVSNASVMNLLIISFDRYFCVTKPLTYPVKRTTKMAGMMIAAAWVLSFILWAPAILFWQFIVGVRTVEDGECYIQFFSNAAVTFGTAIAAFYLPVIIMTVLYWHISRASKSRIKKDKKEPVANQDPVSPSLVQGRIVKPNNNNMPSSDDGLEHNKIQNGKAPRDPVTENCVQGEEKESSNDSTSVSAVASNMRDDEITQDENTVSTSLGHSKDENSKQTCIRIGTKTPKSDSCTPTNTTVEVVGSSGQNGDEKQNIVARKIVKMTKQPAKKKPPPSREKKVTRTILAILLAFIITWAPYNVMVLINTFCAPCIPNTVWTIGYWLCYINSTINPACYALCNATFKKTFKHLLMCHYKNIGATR
Briefly: Alphascreen Surefire phospho-ERK1/2 functional assay, M2. Particulars: for % Emax cf. ACh, M2: CHO cells stably expressing human M2; for EC50: pEC50 M2, CHO cells stably expressing human M2, phospho-ERK1/2. Summed up:
(§1)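 CHO cells stably expressing human M1, M2, M3 or M4 receptor, serum-starved overnight, then stimulated with agonist for 5 min at 37 °C. Cells lysed for 15 min and phospho-ERK1/2 detected in the lysate by AlphaScreen SureFire.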

Assay [3] deals with T3, human muscarinic M3 receptor (Homo sapiens, UniProt P20309).
T3 construct: expressed in transfected cells
T3 sequence (P20309 whole entry): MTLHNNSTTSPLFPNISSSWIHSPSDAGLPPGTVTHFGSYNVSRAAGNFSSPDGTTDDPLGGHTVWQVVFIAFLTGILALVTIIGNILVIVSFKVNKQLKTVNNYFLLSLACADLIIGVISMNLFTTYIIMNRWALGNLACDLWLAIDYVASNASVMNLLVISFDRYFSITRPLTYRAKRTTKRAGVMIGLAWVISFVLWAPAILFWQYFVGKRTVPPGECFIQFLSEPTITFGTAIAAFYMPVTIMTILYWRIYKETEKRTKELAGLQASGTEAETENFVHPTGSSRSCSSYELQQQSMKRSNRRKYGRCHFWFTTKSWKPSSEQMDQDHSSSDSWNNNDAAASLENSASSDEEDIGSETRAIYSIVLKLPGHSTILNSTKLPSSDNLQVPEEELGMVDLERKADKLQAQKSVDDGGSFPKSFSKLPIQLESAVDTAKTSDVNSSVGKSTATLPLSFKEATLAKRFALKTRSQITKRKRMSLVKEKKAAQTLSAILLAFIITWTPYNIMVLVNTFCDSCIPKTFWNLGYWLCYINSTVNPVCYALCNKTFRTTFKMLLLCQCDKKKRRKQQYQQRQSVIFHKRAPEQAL
As to the kind of experiment: Alphascreen Surefire phospho-ERK1/2 functional assay, M3. As to conditions: for % Emax cf. ACh, M3: CHO cells stably expressing human M3; for EC50: pEC50 M3, CHO cells stably expressing human M3, phospho-ERK1/2. Summed up:
as §1

Assay [4] has as its target T4, human muscarinic M4 receptor (Homo sapiens, UniProt P08173).
T4 sequence (P08173 1-479): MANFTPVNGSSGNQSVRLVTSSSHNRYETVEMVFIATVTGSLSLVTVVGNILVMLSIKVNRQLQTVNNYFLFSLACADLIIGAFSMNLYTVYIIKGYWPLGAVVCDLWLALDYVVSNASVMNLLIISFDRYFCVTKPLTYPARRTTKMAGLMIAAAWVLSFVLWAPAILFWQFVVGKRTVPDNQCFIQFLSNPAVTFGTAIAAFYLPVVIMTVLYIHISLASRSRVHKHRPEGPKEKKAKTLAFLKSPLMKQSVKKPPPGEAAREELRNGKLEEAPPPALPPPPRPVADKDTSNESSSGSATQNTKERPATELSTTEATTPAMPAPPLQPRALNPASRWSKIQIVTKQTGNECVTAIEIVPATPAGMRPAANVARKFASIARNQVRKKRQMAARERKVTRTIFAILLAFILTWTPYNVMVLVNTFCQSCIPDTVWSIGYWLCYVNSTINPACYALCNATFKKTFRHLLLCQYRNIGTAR
As to the kind of experiment: Alphascreen Surefire phospho-ERK1/2 functional assay, M4. As to conditions: for % Emax cf. ACh, M4: CHO cells stably expressing human M4; for EC50: pEC50 M4, CHO cells stably expressing human M4, phospho-ERK1/2. Summed up:
as §1

Where [5] appears, read: Emax relative to ACh, listed as 6-6 Isomer 1.
Where [6] appears, read: Emax relative to ACh, listed as 6-6 Isomer 2.
Where [7] appears, read: Emax relative to ACh, listed as 6-7 Isomer 1.
[8] abbreviates: Emax relative to ACh, listed as 6-7 Isomer 2.

As for `CCOC(=O)N1C2COCC1CC(N1CCC(N3CCCCC3=O)CC1)C2` (single isomer, unassigned) [Example 6-6 Isomer 1, Ethyl 7-(2-oxo-1,4′-bipiperidin-1′-yl)-3-oxa-9-azabicyclo[3.3.1]nonane-9-carboxylate], the “% Emax cf. ACh, M1” value in assay [1] (setting [5]) was 103%. The EC50 in assay [1] was 251 nM; in assay [2] it was 339 nM; in assay [3], over 20000 nM; in assay [4], 19.1 nM. For the same compound, in assay [2] (setting [5]), the “% Emax cf. ACh, M2” value was 60%. Further, the “% Emax cf. ACh, M3” value in assay [3] (setting [5]) is recorded as 7%. The “% Emax cf. ACh, M4” value in assay [4] (setting [5]) worked out at 109%.

Regarding `CCOC(=O)N1C2COCC1CC(N1CCC(N3CCCCC3=O)CC1)C2` (single isomer, unassigned) [Example 6-6 Isomer 2, Ethyl 7-(2-oxo-1,4′-bipiperidin-1′-yl)-3-oxa-9-azabicyclo[3.3.1]nonane-9-carboxylate], the “% Emax cf. ACh, M1” value in assay [1] (setting [6]) is reported as 50%. For the same compound, the EC50 is 977 nM in assay [1], over 20000 nM in assay [2] and 81.3 nM in assay [4]. In addition, in assay [2] (setting [6]), the “% Emax cf. ACh, M2” value is 6%. Also, the “% Emax cf. ACh, M3” value in assay [3] (setting [6]) came out at 3%. The “% Emax cf. ACh, M4” value in assay [4] (setting [6]) was 48%.

As to `CCOC(=O)N1C2COCC1CC(N1CCC(N3CCCCCC3=O)CC1)C2` (single isomer, unassigned) [Example 6-7 Isomer 1, Ethyl 7-[4-(2-oxoazepan-1-yl)piperidin-1-yl]-3-oxa-9-azabicyclo[3.3.1]nonane-9-carboxylate], in assay [1] (setting [7]), the “% Emax cf. ACh, M1” value is 111%. For the same compound, the EC50 was 646 nM in assay [1], 1020 nM in assay [2], over 20000 nM in assay [3] and 75.9 nM in assay [4]. The “% Emax cf. ACh, M2” value in assay [2] (setting [7]) is recorded as 87%. Besides, in assay [3] (setting [7]), the “% Emax cf. ACh, M3” value was found to be 28%. For the same compound, the “% Emax cf. ACh, M4” value in assay [4] (setting [7]) is reported as 105%.

On to `CCOC(=O)N1C2COCC1CC(N1CCC(N3CCCCCC3=O)CC1)C2` (single isomer, unassigned) [Example 6-7 Isomer 2, Ethyl 7-[4-(2-oxoazepan-1-yl)piperidin-1-yl]-3-oxa-9-azabicyclo[3.3.1]nonane-9-carboxylate], for which the “% Emax cf. ACh, M1” value in assay [1] (setting [8]) came to 41%. In addition, the figures for the EC50 in assay [1], in assay [2] and in assay [4] were 2190 nM, over 20000 nM and 174 nM, respectively. Moreover, in assay [2] (setting [8]), the “% Emax cf. ACh, M2” value is reported as 5%. Moreover, the “% Emax cf. ACh, M3” value in assay [3] (setting [8]) stood at 2%. For the same compound, in assay [4] (setting [8]), the “% Emax cf. ACh, M4” value amounted to 52%.

Take `CCOC(=O)N1C2COCC1CC(N1CCC(C(=O)NCC3CCC3)CC1)C2` (single isomer, unassigned) [Example 7-3 Isomer 1, Ethyl 7-{4-[(cyclobutylmethyl)carbamoyl]piperidin-1-yl}-3-oxa-9-azabicyclo[3.3.1]nonane-9-carboxylate]: the Emax in assay [1] (CHO, read-out: % Emax cf. ACh, M1, CHO cells stably expressing human M1, Emax relative to ACh) was 100%; in assay [2] (CHO, read-out: % Emax cf. ACh, M2, CHO cells stably expressing human M2, Emax relative to ACh), 62%; in assay [3] (CHO, read-out: % Emax cf. ACh, M3, CHO cells stably expressing human M3, Emax relative to ACh), 57%; in assay [4] (CHO, read-out: % Emax cf. ACh, M4, CHO cells stably expressing human M4, Emax relative to ACh), 97%. The EC50 is 35.5 nM in assay [1], 1480 nM in assay [2], over 20000 nM in assay [3] and 275 nM in assay [4].
